Experimental data: the METLIN SMRT retention time set (Domingo-Almenara et al. 2019)

Assay: gradient 5% acetonitrile 3 min, to 50% in 2 min, to 85% in 15 min, held 3 min, 100 µL/min
Details: column: Zorbax Extend-C18 2.1 x 50 mm; eluents: water / acetonitrile, 0.1% formic acid
In short: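 Pure standards were run in mixtures of ~100 molecules by HPLC coupled to a quadrupole time-of-flight mass spectrometer. The column was a Zorbax Extend-C18 (2.1 × 50 mm, 1.8 μm) at 100 μL/min, with water and acetonitrile each containing 0.1% formic acid, in positive and negative ionization mode. Dead and dwell volumes were 40 μL and 900 μL. Retention time was taken from computationally picked adduct peaks, each manually inspected, with data collected over 3 months.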

For Cc1cccc(NC(=O)C2CCCCN2S(=O)(=O)c2cccs2)n1 (configuration not stated), the RP-LC retention time was 807 s.
For CCOC(=O)c1ccc(NS(=O)(=O)c2cc(-c3c(CC)noc3NC(C)=O)ccc2OC)cc1, the RP-LC retention time was 805 s.
Compound C=CCNC(=O)Nc1nc(CSC)cs1 has an RP-LC retention time of 653 s.
For N#Cc1cnc2ccccc2c1N1CCC(C(=O)N2CCc3ccccc3C2)CC1, the RP-LC retention time was 711 s.
O=C(NC1CCCCCC1)c1ccc2c(c1)nc1n2CCN(Cc2ccccc2)C1=O gave an RP-LC retention time of 829 s.
CCSc1nnc(NC(=O)C2CCC(=O)N2S(=O)(=O)c2ccc(C)cc2)s1 (configuration not stated) gave an RP-LC retention time of 855 s.
Work on CN(C)C[C@@H]1CN(c2ncccn2)C[C@H]1NC(=O)NCc1ccco1 yielded an RP-LC retention time of 550 s.
Work on COc1ccc2[nH]c3c(c2c1)CCNC31CCN(C(=O)C2CCN2C2CCCCC2)CC1 (configuration not stated) yielded an RP-LC retention time of 576 s.
Work on Cc1cc(C)c(C)c(S(=O)(=O)NCC(=O)N2CCN(c3ccccc3)CC2)c1C yielded an RP-LC retention time of 966 s.
O=S(=O)(c1ccccc1)N1CC[C@@H]2COCCN(Cc3ccccc3)[C@@H]2C1 gave an RP-LC retention time of 675 s.
C=CCN1C(=O)COc2ccc(-c3csc(NC(=O)C(C)(C)C)n3)cc21 gave an RP-LC retention time of 964 s.
Work on COc1cccc(N2C=C(C(=O)N3CCCC3)S(=O)(=O)c3ccc(Cl)cc32)c1 yielded an RP-LC retention time of 853 s.
For Cc1ccc(Cl)cc1NC(=O)NC(C)C(=O)N1CCc2ccccc21 (configuration not stated), the RP-LC retention time was 945 s.
Work on Cc1nnc(SCCC(=O)Nc2ccc(F)cc2)s1 yielded an RP-LC retention time of 692 s.
Work on COCCCn1c(=O)c2ccccc2n(Cc2nc(-c3cccc(C)c3)no2)c1=O yielded an RP-LC retention time of 855 s.
Cc1nc2cc(-c3noc(Cc4ccccc4C)n3)ccc2o1 showed an RP-LC retention time of 1060 s.
In the case of CS(=O)(=O)NCCS(=O)(=O)N1CCN(c2ccccc2F)CC1, the RP-LC retention time is reported as 723 s.
Work on OC1(c2ccccn2)CCOC2(CCN(Cc3ccc(Cl)cc3F)CC2)C1 (configuration not stated) yielded an RP-LC retention time of 579 s.
With CCN1CCN(S(=O)(=O)c2cc(-c3nnc(-c4ccc(OC)c(OC)c4)o3)ccc2C)CC1 the RP-LC retention time was 1180 s.
Work on O=C(NCc1ccc2c(c1)OCO2)c1ccc2c(c1)N(CC(=O)N1CCCC1)C(=O)CO2 yielded an RP-LC retention time of 674 s.
Cc1nc(-n2c(C)ccc2C)sc1C(=O)NC1CC1 showed an RP-LC retention time of 850 s.
Work on O=C(c1cc2c(s1)CCC(C(=O)N1CCN(c3ccccn3)CC1)C2)N1CCCC1 (configuration not stated) yielded an RP-LC retention time of 600 s.
With CCC(=O)NCc1nc2c(n1CC)CN(C(=O)c1cc(C)cc(C)c1)CC2 the RP-LC retention time was 620 s.
O=C(Nc1cc(-c2cccs2)nn1CCO)C1COc2ccccc2O1 (configuration not stated) showed an RP-LC retention time of 784 s.
Work on O=C(CN1C(=O)COc2cc(Cl)ccc21)NC1CC1 yielded an RP-LC retention time of 714 s.
Work on CC(C)C(=O)NCCc1nc2cccnc2n1C yielded an RP-LC retention time of 545 s.
Work on Cc1ccc(-c2noc(-c3cccc(S(=O)(=O)NCc4ccccc4)c3)n2)cc1 yielded an RP-LC retention time of 1210 s.
With Fc1ccccc1-c1nc2ccccc2[nH]1 the RP-LC retention time was 592 s.
O=C(NC(C(=O)N1CCCc2ccccc21)c1ccccc1)c1cnccn1 (configuration not stated) gave an RP-LC retention time of 932 s.
Work on COc1cccc(N2CCN(S(=O)(=O)c3cc(-c4nnc(C5CCC5)o4)co3)CC2)c1 yielded an RP-LC retention time of 1060 s.
Compound COc1ccccc1NC(=O)Nc1c(-c2ccc(F)cc2)nc2ccccn12 has an RP-LC retention time of 692 s.
Compound CCOC(=O)c1cnn(-c2ccc(C(=O)NCc3ccco3)cn2)c1C has an RP-LC retention time of 804 s.
Cc1cc(C)nc(N2CCC(NC(=O)c3cccc4nccnc34)CC2)n1 showed an RP-LC retention time of 650 s.
With COCCCNC(=O)C1CCC(=O)N(c2cc(OC)c(OC)c(OC)c2)C1c1ccc(OC)cc1 (configuration not stated) the RP-LC retention time was 572 s.
CC1CCC(NC(=O)C2CCCN(C(=O)c3cc(-c4ccccn4)n[nH]3)C2)CC1 (configuration not stated) gave an RP-LC retention time of 636 s.
Compound COc1ccc(-c2nnc(-c3ccc(C)c(S(=O)(=O)N(C)C)c3)o2)cc1OC has an RP-LC retention time of 878 s.
In the case of Cc1nn(-c2nc(CC(=O)N(CCO)Cc3ccccc3)cs2)c(C)c1Cl, the RP-LC retention time is reported as 943 s.
In the case of c1ccc(C(NCc2cccnc2)(c2ccccc2)c2ccccc2)cc1, the RP-LC retention time is reported as 831 s.
For COc1cc(C(=O)OC(C)CN2CCOCC2)cc(OC)c1OC (configuration not stated), the RP-LC retention time was 662 s.
Compound CCN1C(=O)c2cccnc2Sc2cc(CNC(=O)Cc3ccsc3)ccc21 has an RP-LC retention time of 728 s.
With c1cncc(CN2CC(Oc3ccc(-c4noc(-c5ccncc5)n4)cc3)C2)c1 the RP-LC retention time was 813 s.
In the case of CCOC(=O)c1ccccc1NC(=O)NCC(c1cccnc1)c1cn(C)c2ccccc12 (configuration not stated), the RP-LC retention time is reported as 824 s.
In the case of Cc1oc2ncnc(N3CCCCC3)c2c1C(=O)N(CCN(C)C)Cc1ccccc1, the RP-LC retention time is reported as 568 s.
COc1cccc(-c2noc(N3CCCC3)n2)c1 showed an RP-LC retention time of 898 s.
With Cc1ccc(S(=O)(=O)N2CC=C(c3cn(C)c4ncccc34)CC2)cc1C the RP-LC retention time was 1080 s.
With O=C1CCCN1Cc1noc(-c2ccccc2Cl)n1 the RP-LC retention time was 770 s.
Compound COC[C@@H]1CN(c2cnccn2)C[C@H]1C(=O)NCCn1ccnc1 has an RP-LC retention time of 498 s.
With COc1ccc(C)cc1NC(=O)CN1C(=O)NC2(CCC(C)CC2)C1=O (configuration not stated) the RP-LC retention time was 853 s.
Cc1ccc(NC(=O)/C=C/c2ccccc2)c(C)c1 showed an RP-LC retention time of 913 s.
For CCOc1ccc(S(=O)(=O)NCc2c(-c3ccccc3)nc3sc(C)nn23)cc1, the RP-LC retention time was 913 s.
For COc1ccc(CN2C=C(C(=O)OCc3noc(-c4ccccc4F)n3)C(C)=NS2(=O)=O)cc1, the RP-LC retention time was 1090 s.
Compound O=c1ccc(-c2cccs2)nn1CCCNS(=O)(=O)c1cccc(Cl)c1Cl has an RP-LC retention time of 856 s.
Cc1sc(-c2noc(C3CCC3)n2)cc1S(=O)(=O)N1CCC(C(=O)N2CCOCC2)CC1 gave an RP-LC retention time of 948 s.
In the case of O=C(NCc1ccc(N2CCN(c3ccccn3)CC2)cc1)c1ccoc1, the RP-LC retention time is reported as 624 s.
CCN1C(=O)CCc2cc(NS(=O)(=O)c3ccc4c(c3)OCCO4)ccc21 showed an RP-LC retention time of 794 s.
Work on CC(C)Cn1cc(S(=O)(=O)N2CCc3ccccc3C2)c2cccnc21 yielded an RP-LC retention time of 784 s.
Cc1cccc(CN2CCN(C3CCN(C(=O)Nc4ccc5c(c4)OCCO5)CC3)C2=O)c1 showed an RP-LC retention time of 804 s.
Compound Cc1cc(NC(=O)N(C)CC2CCOCC2)ccc1Br has an RP-LC retention time of 819 s.
Cc1nc(-c2cccnc2)nc2c1CCC(=O)N2Cc1ccncc1 gave an RP-LC retention time of 554 s.
With COc1ccc(N2CCN(c3nccc(-n4nc(C)cc4C)n3)CC2)cc1 the RP-LC retention time was 956 s.
CNC(=O)N1CCC(OC2CCN(Cc3ccccc3)CC2)CC1 showed an RP-LC retention time of 555 s.
COc1ccc(S(=O)(=O)N2[C@H]3CC[C@@H]2c2cnc(C)nc2C3)cc1 gave an RP-LC retention time of 693 s.
For Cc1cc(C(=O)Nc2ccc(N3CCOCC3)cc2)nc2cc(-c3ccccn3)nn12, the RP-LC retention time was 802 s.
Work on CCC(=O)N(C1CCOCC1)C1CCN(S(=O)(=O)c2cccc(C)c2)CC1 yielded an RP-LC retention time of 836 s.
For Cc1nc2cccnc2n1CC1CCCN(S(=O)(=O)c2ccc3c(c2)CCCC3)C1 (configuration not stated), the RP-LC retention time was 831 s.
O=C(NCc1ccc(OC(F)(F)F)cc1)C1c2c(F)cccc2C(=O)N1CCc1ccccn1 (configuration not stated) gave an RP-LC retention time of 787 s.
Cc1nc(CC(=O)Nc2nc(-c3ccc(Br)cc3)c(C)s2)cs1 showed an RP-LC retention time of 994 s.
